Read-outs that look alike come from different tables or passages of the source. Where a SMILES comes first, the peptide text is derived from it.
Columns and labels:
[1] = test system: E. coli; experiment: microbe, parasite or virus in culture; type: cell-based, Escherichia coli; details: for MIC: Escherichia coli, 18 h, read-out: MIC, E. coli, MHB−
Method: (§1) In the following experiments, bacterial cells were cultured in 96-well microtiter plates in cation-adjusted Mueller-Hinton Broth (MHB) for 18 h at 37° C. The main strains used were E. coli (K-12 BW25113) (placed in stationary incubator) and S. aureus (Newman Strain) (incubated at 250 r.p.m). Knockout strains (ΔtolcC and ΔychM) were used from the Keio knockout collection (Baba et al., Construction of Escherichia coli K-12 in-frame, single-gene knockout mutants: the Keio collection. Mol Syst Biol 2, 2006 0008, doi:10.1038/msb4100050 (2006)). For MIC determination and checkerboard analyses, Clinical & Laboratory Standards Institute (CLSI) protocol was used. […] DiSC3 loading of S. aureus cells was performed as previously described (Farha et al., Collapsing the proton motive force to identify synergistic combinations against Staphylococcus aureus. Chemistry & biology 20, 1168-1178, doi:10.1016/j.chembiol.2013.07.006 (2013)). CCCP concentration of 20 μM was used. pH adjustments were made by addition of HCl or NaOH. INT assay and ATP bioluminescence assays were performed as previously described (Farha et al., Collapsing the proton motive force to identify synergistic combinations against Staphylococcus aureus. Chemistry & biology 20, 1168-1178, doi:10.1016/j.chembiol.2013.07.006 (2013)). For chemical-genomic studies, the Keio library was grown overnight in cation-adjusted MHB broth, in 384-well plates. From these, treatment plates (25 mM sodium bicarbonate, or a sterile water control) were inoculated and grown for 15 hours at 37° C., in a stationary incubator. Data was normalized according to Mangat et al (Mangat et al., Rank ordering plate data facilitates data visualization and normalization in high-throughput screening. J Biomol Screen 19, 1314-1320, doi:10.1177/1087057114534298 (2014)), with gene products and GO terms mined from EcoCyc. The GFP promoter library (Keseler et al., EcoCyc: fusing model organism databases with systems biology. Nucleic Acids Res 41, D605-612, doi:10.1093/nar/gks1027 (2013)) was grown for 18 hours at ambient temperature with the same inoculation strategy as with the Keio collection. The analysis pipeline of Zaslaver et al (Zaslaver et al., A comprehensive library of fluorescent transcriptional reporters for Escherichia coli. Nat Methods 3, 623-628, doi:10.1038/nmeth895 (2006)) was used to generate maps of promoter activity, from which lists of promoters with increased or decreased activity were compiled.
(§2) Fold enhancement in MICs in the media supplemented with sodium bicarbonate is represented by a positive fold, whereas suppression of activity is represented by a negative fold.
(§3) The effect of sodium bicarbonate on the activity of additional antibacterial agents was investigated. Clinical isolates of various bacteria were obtained from the ATCC and the IHMA.
(§4) The effect of sodium bicarbonate on the activity of cationic antiseptic agents was investigated. Clinical isolates of various bacteria were obtained from the ATCC and the IHMA.

[2] = test system: S. aureus; experiment: microbe, parasite or virus in culture; details: for MIC: Staphylococcus aureus, read-out: MIC, S. aureus, MHB−
Method: as §1, §2, §3, §4

[3] = antibiotic agents, MHB in the absence of sodium bicarbonate
[4] = MHB in the absence of sodium bicarbonate
[5] = antiseptic agents, MHB in the absence of sodium bicarbonate
[6] = antiseptic agents, MHB in the presence of 25 mM sodium bicarbonate
[7] = antiseptic agents, fold shift in MIC

SMILES | MIC, E. coli, MHB+ [1] | MIC, S. aureus, MHB+ [2] | MIC ([2]; 18 h) | MIC [1, 4] | other results
NCC[C@H](O)C(=O)N[C@@H]1C[C@H](N)[C@@H](O[C@H]2O[C@H](CN)[C@@H](O)[C@H](O)[C@H]2O)[C@H](O)[C@H]1O[C@H]1O[C@H](CO)[C@@H](O)[C@H](N)[C@H]1O [Amikacin] | 4 μg of antimicrobial agent/mL of buffer | 8 μg of antimicrobial agent/mL of buffer | 4 µg/mL |  | MIC [1, 3]: 4 µg/mL
CC1(C)S[C@@H]2[C@H](NC(=O)[C@H](N)c3ccc(O)cc3)C(=O)N2[C@H]1C(=O)O [Amoxicillin] |  | 1 | 0.25 µg/mL |  | MIC [1]: 8 µg/mL
CC1(C)S[C@@H]2[C@H](NC(=O)[C@H](N)c3ccccc3)C(=O)N2[C@H]1C(=O)O [Ampicillin] |  | 8 | 1 µg/mL | 16 µg/mL | 
CN[C@@H]1[C@@H](O[C@H]2O[C@H](CO)[C@@H](N)[C@H](O)[C@H]2O)OC2C[C@@H](N)[C@@H](O[C@H]3[C@H](O)[C@@H](O)[C@H](N)C[C@@H]3N)OC2[C@@H]1O (some centres unmarked) [Apramycin] |  | 32 | 16 µg/mL | 32 µg/mL | 
CC[C@H](C)[C@H](N)C1=N[C@H](C(=O)N[C@@H](CC(C)C)C(=O)N[C@H](CCC(=O)O)C(=O)N[C@H](C(=O)N[C@H]2CCCCNC(=O)[C@H](CC(N)=O)NC(=O)[C@@H](CC(=O)O)NC(=O)[C@H](Cc3cnc[nH]3)NC(=O)[C@@H](Cc3ccccc3)NC(=O)[C@H]([C@@H](C)CC)NC(=O)[C@@H](CCCN)NC2=O)[C@@H](C)CC)CS1 [Bacitracin] (HELM PEPTIDE1{[CC[C@H](C)[C@H](N)C1=N[C@H](C(=O)[*:2])CS1].L.[dE].I.K.[NCCC[C@@H](N[*:1])C(=O)[*:2]].I.[dF].H.[dD].N}$PEPTIDE1,PEPTIDE1,5:R3-11:R2$$$V2.0) |  | 64 | 32 µg/mL | > 256 µg/mL | 
CC[C@H](C)[C@@H]1NC(=O)[C@H](CCCNC(=N)N)NC(=O)[C@@H](NC(=O)[C@H](CC(C)C)NC(=O)[C@@H](N)CCCNC(=N)N)CSSC[C@@H](C(=O)N[C@@H](CCCNC(=N)N)C(=O)O)NC(=O)[C@H](C(C)C)NC(=O)[C@H](CCCNC(=N)N)NC(=O)[C@H]([C@@H](C)CC)NC(=O)[C@H](C(C)C)NC(=O)[C@H](C(C)C)NC1=O [Bactenesin] (HELM PEPTIDE1{R.L.C.R.I.V.V.I.R.V.C.R}$PEPTIDE1,PEPTIDE1,3:R3-11:R3$$$V2.0; N-terminus and C-terminus assumed; bridges inferred) |  |  |  |  | enhancement of antimicrobial activity in the presence of bicarbonate [1]: 256 fold; MIC in MHB ([2]; Newman, 18 h): 128 µg/mL; MIC in MHB + 25 mM bicarbonate ([2]; Newman, 18 h): 0.5 µg/mL
NC(=O)c1ccccc1 [Benzamide] | >128 μg of antimicrobial agent/mL of buffer | >128 μg of antimicrobial agent/mL of buffer | > 128 µg/mL |  | MIC [1, 3]: > 128 µg/mL
N[C@@H]1CCCCN(c2c(F)cc3c(=O)c(C(=O)O)cn(C4CC4)c3c2Cl)C1 [Besifloxacin] |  | 0.25 | 0.125 µg/mL | 0.25 µg/mL | effect of 25 mM sodium bicarbonate on antibacterial activity [1]: increased
N[C@@H](C(=O)N[C@@H]1C(=O)N2C(C(=O)O)=C(Cl)CS[C@H]12)c1ccccc1 [Cefaclor] | 4 μg of antimicrobial agent/mL of buffer | 8 μg of antimicrobial agent/mL of buffer | 2 µg/mL |  | MIC [1, 3]: 4 µg/mL
CCN1CCN(C(=O)N[C@@H](C(=O)N[C@@H]2C(=O)N3C(C(=O)O)=C(CSc4nnnn4C)CS[C@H]23)c2ccc(O)cc2)C(=O)C1=O [Cefoperazone] |  | 4 | 0.25 µg/mL | 0.125 µg/mL | 
CO/N=C(\C(=O)N[C@@H]1C(=O)N2C(C(=O)O)=C(COC(C)=O)CS[C@H]12)c1csc(N)n1 [Cefotaxime] | 8 μg of antimicrobial agent/mL of buffer | 2 μg of antimicrobial agent/mL of buffer | 0.5 µg/mL |  | MIC [1, 3]: 4 µg/mL
CO/N=C(\C(=O)N[C@@H]1C(=O)N2C(C(=O)O)=C(CSc3nc(=O)c(=O)[nH]n3C)CS[C@H]12)c1csc(N)n1 [Ceftriaxone] |  | 16 | 4 µg/mL | 0.625 µg/mL | 
CCCCCCCCCCCCCCCC[N+](C)(C)C.[Br-] [Cetrimodium bromide] |  |  |  |  | MIC, E. coli, MHB [1, 5]: >128 μg of antimicrobial agent/mL of buffer; MIC, E. coli, MHB+ [1, 6]: 32 μg of antimicrobial agent/mL of buffer; Fold, E. coli [1, 7]: 4; MIC, S. aureus, MHB [2, 5]: 16 μg of antimicrobial agent/mL of buffer; MIC, S. aureus, MHB+ [2, 6]: 4 μg of antimicrobial agent/mL of buffer; Fold, S. aureus [2, 7]: 4
O=C(N[C@H](CO)[C@H](O)c1ccc([N+](=O)[O-])cc1)C(Cl)Cl [Chloramphenicol] |  | 8 | 8 µg/mL | 8 µg/mL | effect of 25 mM sodium bicarbonate on antibacterial activity [1]: remained largely unchanged; effect of 25 mM sodium bicarbonate on antibacterial activity ([2]; S. aureus, result in words): remained largely unchanged
[H]/N=C(\N/C(=N/[H])NCCCCCCNC(=N)NC(=N)Nc1ccc(Cl)cc1)Nc1ccc(Cl)cc1 [Chlorhexidine] | 0.125 μg of antimicrobial agent/mL of buffer | 0.0625 μg of antimicrobial agent/mL of buffer |  |  | MIC, E. coli, MHB [1]: 0.5 μg of antimicrobial agent/mL of buffer; MIC, S. aureus, MHB [2]: 0.5 μg of antimicrobial agent/mL of buffer
CC[C@H]1OC(=O)[C@H](C)[C@@H](O[C@H]2C[C@@](C)(OC)[C@@H](O)[C@H](C)O2)[C@H](C)[C@@H](O[C@@H]2O[C@H](C)C[C@H](N(C)C)[C@H]2O)[C@](C)(OC)C[C@@H](C)C(=O)[C@H](C)[C@@H](O)[C@]1(C)O [Clarithromycin] | 8 μg of antimicrobial agent/mL of buffer | 0.062 μg of antimicrobial agent/mL of buffer | 0.5 µg/mL |  | MIC [1, 3]: 64 µg/mL
CC[C@H]1OC(=O)[C@H](C)[C@@H](O[C@H]2C[C@@](C)(OC)[C@@H](O)[C@H](C)O2)[C@H](C)[C@@H](O[C@@H]2O[C@H](C)C[C@H](N(C)C)[C@H]2O)[C@](C)(O)C[C@@H](C)C(=O)[C@H](C)[C@@H](O)[C@]1(C)O [Erythromycin] |  | 1 | 32 µg/mL |  | 
CC[C@H](C)[C@H](N)C(=O)N[C@@H](CC(C)C)C(=O)N1CCC[C@H]1C(=O)N[C@@H](Cc1c[nH]c2ccccc12)C(=O)N[C@@H](CCCCN)C(=O)N[C@@H](Cc1c[nH]c2ccccc12)C(=O)N1CCC[C@H]1C(=O)N[C@@H](Cc1c[nH]c2ccccc12)C(=O)N[C@@H](Cc1c[nH]c2ccccc12)C(=O)N1CCC[C@H]1C(=O)N[C@@H](Cc1c[nH]c2ccccc12)C(=O)N[C@@H](CCCNC(=N)N)C(=O)N[C@@H](CCCNC(=N)N)C(N)=O [Indolicidin] |  |  |  |  | enhancement of antimicrobial activity in the presence of bicarbonate ([2]; S. aureus, 25 mM sodium bicarbonate): 16 fold
Cc1ncc([N+](=O)[O-])n1CCO [Metronidazole] |  |  | > 128 µg/mL |  | 
O=C([O-])O.[K+] [Potassium bicarbonate] |  |  |  |  | MIC of dirithromycin in the presence of the salt ([1]; E. coli, salt at 25 mM, pH adjusted to 7.4): 4 µg/mL

From US11400106B2, “Methods for inhibiting microbe growth” (priority 2018, dated 2022)
